One experiment has as its target TIPARP GST-(TEV) (Homo sapiens (Human), UniProt Q7Z3E1). Briefly: TR-FRET binding assay, TIPARP. To be noted: for IC50: TR-FRET, Probe 1, 2 hours incubation; for PARP1/TIPARP IC50 Ratio: ratio of PARP1 GST IC50 to TIPARP GST-(TEV) IC50. The source says:
The full-length cDNA encoding the human TIPARP (NP_001171647.1, UniProtKB-Q7Z3E1) of 657 amino acids was the template to generate the expression construct. […] The TIPARP fusion protein includes GST, glutathione S-transferase, a 26 kDa protein whose DNA sequence is frequently integrated into expression vectors for production of recombinant proteins. A […], was cloned into vector pFastBacTM 1 (Thermo Fisher Scientific) with an N-terminal GST tag followed by a TEV protease site to produce the TIPARP fusion protein, TIPARP GST-(TEV). TR-FRET assays were used to measure the binding of compounds to TIPARP and PARP1, and to characterize biochemical selectivity. Compound stock solutions (10 mM) were serially diluted in 3-fold increments in dimethyl sulfoxide (DMSO). Diluted compounds were dispensed (30 nL) into white ProxiPlate-384-well plates (PerkinElmer, Waltham, MA, USA) using an ECHO® 550 acoustic Labcyte dispenser (Beckman-Coulter Life Sciences, Indianapolis, IN, USA) to achieve a final starting concentration of 30 μM to 0.5 nM in the assay. This was followed by addition of 5 μL of 2× protein/probe mix (Table 2) made in assay buffer (Tris-HCl 50 mM pH 8.0; 5 mM MgCl2; 5 μM ZnCl2; 1 mM DTT (dithiothreitol); 0.15% BSA (bovine serum albumin) (w/v); and 0.01% TritonX-100 (w/v)) at final concentrations listed in Table 2. Subsequently, 5 μL of 2× antibody (Tb-labeled anti-GST antibody, Thermo Fisher Scientific, Waltham, MA, USA) in HEPES buffered saline was added to each well at a final concentration of 1 nM. The samples were then incubated for 2 hours under ambient conditions. Fluorescence was measured and TR-FR ET ratios were determined on an EnVision multimode plate reader (PerkinElmer) using a 520 nanometer (nm) excitation wavelength and collecting fluorescence emission at 495 nm. […] [table]
(In TR-FRET formats the signal depends on donor and acceptor labels being close together.)

For a further experiment, the target named is PARP1 GST (Homo sapiens (Human), UniProt P09874). Nature of the experiment: TR-FRET binding assay, PARP1. To be noted: Probe 2, 2 hours incubation. The procedure: TR-FRET assays were used to measure the binding of compounds to TIPARP and PARP1, and to characterize biochemical selectivity. Compound stock solutions (10 mM) were serially diluted in 3-fold increments in dimethyl sulfoxide (DMSO). Diluted compounds were dispensed (30 nL) into white ProxiPlate-384-well plates (PerkinElmer, Waltham, MA, USA) using an ECHO® 550 acoustic Labcyte dispenser (Beckman-Coulter Life Sciences, Indianapolis, IN, USA) to achieve a final starting concentration of 30 μM to 0.5 nM in the assay. This was followed by addition of 5 μL of 2× protein/probe mix (Table 2) made in assay buffer (Tris-HCl 50 mM pH 8.0; 5 mM MgCl2; 5 μM ZnCl2; 1 mM DTT (dithiothreitol); 0.15% BSA (bovine serum albumin) (w/v); and 0.01% TritonX-100 (w/v)) at final concentrations listed in Table 2. Subsequently, 5 μL of 2× antibody (Tb-labeled anti-GST antibody, Thermo Fisher Scientific, Waltham, MA, USA) in HEPES buffered saline was added to each well at a final concentration of 1 nM. The samples were then incubated for 2 hours under ambient conditions. Fluorescence was measured and TR-FR ET ratios were determined on an EnVision multimode plate reader (PerkinElmer) using a 520 nanometer (nm) excitation wavelength and collecting fluorescence emission at 495 nm.
Sequence of PARP1 GST (P09874 whole entry): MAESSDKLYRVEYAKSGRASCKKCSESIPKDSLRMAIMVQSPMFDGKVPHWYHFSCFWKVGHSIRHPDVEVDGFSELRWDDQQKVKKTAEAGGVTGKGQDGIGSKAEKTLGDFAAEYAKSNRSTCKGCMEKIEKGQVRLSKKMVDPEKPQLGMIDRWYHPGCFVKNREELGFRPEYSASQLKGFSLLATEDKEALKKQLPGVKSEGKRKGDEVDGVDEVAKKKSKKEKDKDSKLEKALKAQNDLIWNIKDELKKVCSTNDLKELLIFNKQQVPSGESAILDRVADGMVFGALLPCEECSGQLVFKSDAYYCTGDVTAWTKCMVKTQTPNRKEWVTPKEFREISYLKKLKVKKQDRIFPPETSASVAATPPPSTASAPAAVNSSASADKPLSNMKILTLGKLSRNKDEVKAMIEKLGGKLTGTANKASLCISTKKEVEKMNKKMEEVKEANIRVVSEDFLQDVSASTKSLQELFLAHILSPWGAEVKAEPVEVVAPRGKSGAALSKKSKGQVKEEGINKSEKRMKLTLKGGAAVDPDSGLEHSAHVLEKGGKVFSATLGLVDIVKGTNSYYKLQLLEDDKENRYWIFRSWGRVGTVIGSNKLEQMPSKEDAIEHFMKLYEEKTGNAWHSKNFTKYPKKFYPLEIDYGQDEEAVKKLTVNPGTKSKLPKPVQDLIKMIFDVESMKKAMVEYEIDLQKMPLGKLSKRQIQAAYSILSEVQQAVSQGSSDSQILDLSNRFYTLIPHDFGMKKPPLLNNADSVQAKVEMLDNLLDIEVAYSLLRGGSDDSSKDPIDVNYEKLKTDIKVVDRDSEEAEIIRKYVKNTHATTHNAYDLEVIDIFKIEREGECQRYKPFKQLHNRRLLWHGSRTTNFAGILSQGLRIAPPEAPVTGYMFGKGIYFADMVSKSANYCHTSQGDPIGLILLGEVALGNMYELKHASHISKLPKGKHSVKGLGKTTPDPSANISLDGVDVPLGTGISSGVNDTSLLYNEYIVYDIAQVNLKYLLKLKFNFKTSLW

For a further experiment, the system named is NCI-H1373 cells. Briefly: NCI-H1373 CellTiter-Glo cell assay for TIPARP inhibition. To be noted: Homo sapiens, NCI-H1373, 144 h; 6 days, 100 nM 10-Cl-BBQ in medium; read-out: NCI-H1373 CTG EC50. In kind it is cell-based, human. The procedure:
The NCI-H1373 CellTiter-Glo® assay was used to determine cell numbers after TIPARP inhibition-induced cell cycle arrest, and enabled screening of compounds for cellular TIPARP inhibition potency.
Compound stock solutions (10 mM) were serially diluted in 3-fold increments in dimethyl sulfoxide. Sample aliquots (120 nL) were dispensed into Corning® 384-well Flat Clear Bottom White Polystyrene TC-treated Microplates (Corning Life Sciences, Corning, NY, USA) using an ECHO® 550 acoustic Labcyte dispenser (Beckman-Coulter Life Sciences, Indianapolis, IN, USA) to achieve final concentrations between 30 μM and 0.5 nM in the assay. This was followed by the addition of 40 μL of 1000 NCI-H1373 cells (ATCC®, Manassas, VA, USA) in complete growth medium RPMI 1640 growth medium (Thermo Fisher Scientific, Waltham, MA, USA) supplemented with 20 mg/L L-glutamate, 25 mM HEPES (4-(2-hydroxyethyl)-1-piperazineethanesulfonic acid), 10% (v/v) heat inactivated FBS (fetal bovine serum), 1% (w/v) penicillin-streptomycin, and 100 nM 10-Cl-BBQ (10-chloro-7H-benzimidazo[2,1-a]benz[de]isoquinolin-7-one, (Tocris, Minneapolis, MN, USA). Duplicate cell plates with 40 μL cells/well along with various concentrations of compounds were kept in Nunc™ Square BioAssay Dishes (Thermo Fisher Scientific) at 98% relative humidity in a 5% C02 incubator at 37° C. for 6 days. On day 7, plates were moved to ambient lab conditions for 10 minutes until the temperature equilibrated. Following equilibration, CellTiter-Glo® Luminescent Cell Viability Assay reagent (Promega™, Madison, WI, USA) was added (15 μL) to each well of the plates. After a 20 minutes incubation, luminescence was detected using a ViewLux™ microplate imager (PerkinElmer, Waltham, MA, USA). Data analysis was performed using GraphPad Prism (Dotmatics, Boston, MA, USA).

For another experiment, the system named is DLD-1 parent cells. Briefly: CellTiter-Glo DLD-1 parent cell assay. In kind it is cell-based. Particulars: Homo sapiens, 144 h, 6 days, read-out: DLD-1 CTG EC50. The source says: (§1) The DLD-1 BRCA2 (−/−) CellTiter-Glo® assay measured the synthetic lethality of PARP1/2 inhibitors and was used as a surrogate to allow measurement of activity of both PARP1 and PARP2 in cells. If PARP1 and PARP2 are inhibited and are trapped onto chromatin during DNA replication, there is replication fork stalling and accumulation of double strand breaks. In BR CA wild-type cells, the resulting double strand DNA breaks are repaired via homologous recombination. In cells with mutation of BRCA1 or BRCA2, homologous recombination repair of DNA double strand breaks is defective, and cell death occurs after PARP1/2 inhibitor treatment (Lord C J, Ashworth A. PARP inhibitors: synthetic lethality in the clinic. Science. 2017 Mar. 17; 355(6330):1152-1158). Testing compounds in viability assays with the DLD-1-BR CA 2 (−/−) and DLD-1 parent cell enabled assessment on PARP1/2-dependent (cytotoxicity in the BRCA2 (−/−) cells only) vs. non-selective cytotoxicity in both cell lines.
(§2) Compound stock solutions (10 mM) were serially diluted in 3-fold increments in dimethyl sulfoxide (DMSO). Sample aliquots (120 nL) were dispensed into Corning® 384-well Flat Clear Bottom White Polystyrene TC-treated Microplates (Corning Life Sciences, Corning, NY, USA) using an ECHO® 550 acoustic Labcyte dispenser (Beckman-Coulter Life Sciences, Indianapolis, IN, USA) to achieve concentrations between 30 μM and 0.5 nM in the assay. In the assay, 40 μL of 500 DLD-1 parent cells (HORIZON® Therapeutics, Deerfield, IL, USA) or 40 μL of 1200 DLD-1-BRCA2 (−/−) cells (HORIZON Therapeutics) in complete growth medium containing RPMI 1640 growth medium (ThermoFisher Scientific, Waltham, MA, USA) supplemented with 20 mg/L L-glutamate, 25 mM HEPES (4-(2-hydroxyethyl)-1-piperazineethanesulfonic acid), 10% (v/v) heat inactivated FBS (fetal bovine serum), and 1% (w/v) Penicillin-Streptomycin were added.
(§3) Duplicate cell plates with 40 μL cells/well along with various concentrations of compounds were kept in Nunc™ Square BioAssay Dishes (Thermo Fisher Scientific) at 98% relative humidity in a 5% CO2 incubator at 37° C. for 6 days. On day 7, plates were moved to ambient lab conditions for 10 minutes until the temperature equilibrated. Following equilibration, CellTiter-Glo® Luminescent Cell Viability Assay reagent (Promega™, Madison, WI, USA) was added (15 μL) to each well of the plates. After a 20 minutes incubation, luminescence was detected using a ViewLux™ microplate imager (PerkinElmer, Waltham, MA, USA). Data analysis was performed using GraphPad Prism (Dotmatics, Boston, MA, USA).
On the technique in general: ATP-based viability assays read luminescence as a measure of living cells.

Another experiment has as its system DLD-1 BRCA2 (−/−) cells. Nature of the experiment: CellTiter-Glo DLD-1 BRCA2 (−/−) cell assay for PARP1/2 inhibition. In kind it is cell-based. To be noted: Homo sapiens, 144 h, 6 days, read-out: DLD-1 BRCA2 (−/−) CTG EC50.
Source text: as §1, §2, §3

Sequence of TIPARP GST-(TEV) (Q7Z3E1 441-657): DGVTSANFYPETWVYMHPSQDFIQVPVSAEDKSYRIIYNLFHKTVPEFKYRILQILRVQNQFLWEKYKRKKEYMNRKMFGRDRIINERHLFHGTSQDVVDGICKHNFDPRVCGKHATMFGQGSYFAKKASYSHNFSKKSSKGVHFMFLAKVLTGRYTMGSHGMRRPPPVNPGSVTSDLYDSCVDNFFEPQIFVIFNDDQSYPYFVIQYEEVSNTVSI

As a reminder, the IC50 is the concentration needed to halve the response being measured. The low end stands for higher potency, the high end for lower potency. `C[C@@H]1CN(c2ncc(C(F)(F)F)cn2)C[C@H](C)N1C(=O)[C@H]1C[C@@H](c2c[nH]c(=O)c(C(F)(F)F)c2)C1` [Example 2, 5-[(1s,3s)-3-{(2R,6S)-2,6-dimethyl-4-[5-(trifluoromethyl)pyrimidin-2-yl]piperazine-1-carbonyl}cyclobutyl]-3-(trifluoromethyl)pyridin-2(1H)-one]: the IC50 at TIPARP GST-(TEV) turned out to be 3.75 nM; at PARP1 GST, 5020 nM. Also, the “PARP1/TIPARP IC50 Ratio” value at TIPARP GST-(TEV) amounted to 1340. The EC50 is 32.2 nM in the experiment with NCI-H1373 cells, 22100 nM in the experiment with DLD-1 parent cells and 16500 nM with DLD-1 BRCA2 (−/−) cells.
Turning to `C[C@@H]1CN(C(=O)[C@H]2C[C@@H](c3c[nH]c(=O)c(C(F)(F)F)c3)C2)CCN1c1ncc(C(F)(F)F)cn1` [Example 3, 5-[(1S,3s)-3-{(3R)-3-methyl-4-[5-(trifluoromethyl)pyrimidin-2-yl]piperazine-1-carbonyl}cyclobutyl]-3-(trifluoromethyl)pyridin-2(1H)-one], the IC50 at TIPARP GST-(TEV) turned out to be 4.74 nM; on PARP1 GST, 504 nM. Also, the “PARP1/TIPARP IC50 Ratio” value on TIPARP GST-(TEV) turned out to be 106. Also, the EC50 in the experiment on NCI-H1373 cells is 9.65 nM; with DLD-1 parent cells, over 30000 nM; with DLD-1 BRCA2 (−/−) cells, 5030 nM.
In the case of `C[C@@H]1CN(C(=O)[C@H]2C[C@@H](c3c[nH]c(=O)c(C(F)(F)F)c3)C2)C[C@H](C)N1c1ncc(C(F)(F)F)cn1` [Example 4, 5-[(1s,3s)-3-{(3R,5S)-3,5-dimethyl-4-[5-(trifluoromethyl)pyrimidin-2-yl]piperazine-1-carbonyl}cyclobutyl]-3-(trifluoromethyl)pyridin-2(1H)-one], the IC50 on TIPARP GST-(TEV) stood at 5.7 nM; at PARP1 GST, 3120 nM. For the same molecule, the “PARP1/TIPARP IC50 Ratio” value on TIPARP GST-(TEV) amounted to 547. Also, the figures for the EC50 in the experiment on NCI-H1373 cells, in the experiment on DLD-1 parent cells and in the experiment on DLD-1 BRCA2 (−/−) cells were 11.1 nM, 23900 nM and 7170 nM, respectively.
Turning to `C[C@@H]1CN(C(=O)[C@H]2C[C@@H](c3c[nH]c(=O)c(C(F)(F)F)c3)C2)C[C@H](C)N1c1ncc(C(C)(C)O)cn1` [Example 5, 5-[(1s,3s)-3-{(3R,5S)-4-[5-(2-hydroxypropan-2-yl)pyrimidin-2-yl]-3,5-dimethylpiperazine-1-carbonyl}cyclobutyl]-3-(trifluoromethyl)pyridin-2(1H)-one], the concentration for half-maximal inhibition (IC50) on TIPARP GST-(TEV) came to 2.3 nM; on PARP1 GST, 2240 nM. Besides, the “PARP1/TIPARP IC50 Ratio” value on TIPARP GST-(TEV) came to 974. The figures for the EC50 in the experiment on NCI-H1373 cells, in the experiment with DLD-1 parent cells and with DLD-1 BRCA2 (−/−) cells were 34.4 nM, over 30000 nM and 20500 nM, respectively.
Turning to `C[C@H]1CN(c2ncc(C(F)(F)F)cn2)CCN1C(=O)[C@H]1C[C@@H](c2c[nH]c(=O)c(C(F)(F)F)c2)C1` [Example 6, 5-[(1R,3s)-3-{(2S)-2-methyl-4-[5-(trifluoromethyl)pyrimidin-2-yl]piperazine-1-carbonyl}cyclobutyl]-3-(trifluoromethyl)pyridin-2(1H)-one], the IC50 at TIPARP GST-(TEV) stood at 3.43 nM; on PARP1 GST, 283 nM. For the same molecule, the “PARP1/TIPARP IC50 Ratio” value at TIPARP GST-(TEV) was found to be 82.5. Besides, the EC50 was found to be 45.4 nM in the experiment with NCI-H1373 cells, 14400 nM with DLD-1 parent cells and 1130 nM with DLD-1 BRCA2 (−/−) cells.
In the case of `C[C@@H]1CN(C(=O)[C@H]2C[C@@H](c3c[nH]c(=O)c(C(F)(F)F)c3)C2)CCN1c1ncc(C(C)(C)O)cn1` [Example 7, 5-[(1S,3s)-3-{(3R)-4-[5-(2-hydroxypropan-2-yl)pyrimidin-2-yl]-3-methylpiperazine-1-carbonyl}cyclobutyl]-3-(trifluoromethyl)pyridin-2(1H)-one], the IC50 at TIPARP GST-(TEV) is 3.79 nM; on PARP1 GST, 1580 nM. Further, the “PARP1/TIPARP IC50 Ratio” value at TIPARP GST-(TEV) came out at 417. Also, the values for the EC50 in the experiment on NCI-H1373 cells, in the experiment on DLD-1 parent cells and in the experiment on DLD-1 BRCA2 (−/−) cells were 71.7 nM, over 30000 nM and 17200 nM, respectively.
For `C[C@H]1CN(C(=O)[C@H]2C[C@@H](c3c[nH]c(=O)c(C(F)(F)F)c3)C2)CCN1c1ncc(C(F)(F)F)cn1` [Example 8, 5-[(1R,3s)-3-{(3S)-3-methyl-4-[5-(trifluoromethyl)pyrimidin-2-yl]piperazine-1-carbonyl}cyclobutyl]-3-(trifluoromethyl)pyridin-2(1H)-one], the results for the IC50 on TIPARP GST-(TEV) and on PARP1 GST were 8.79 nM and 1200 nM, respectively. Further, the “PARP1/TIPARP IC50 Ratio” value on TIPARP GST-(TEV) is reported as 137. The results for the EC50 in the experiment with NCI-H1373 cells, in the experiment on DLD-1 parent cells and with DLD-1 BRCA2 (−/−) cells were 55.9 nM, over 30000 nM and 5730 nM, respectively.

These data come from patent US20250333394A1, “Tiparp Inhibitor Compounds” (AbbVie Inc., priority 2024, published 2025).
